The source of these data is ChEMBL document CHEMBL1151020, “Synthesis of neoeudistomin analogsAs potential filaricides” (1995).

System in one assay: not listed separately
Briefly: Macrofilaricidal activity (maf) against Acanthocheilonema viteae in Mastomys natalensis at a dose of 30 mg/kg for 5 days by ip administration; Inactive. Type of assay: functional. Particulars: route intraperitoneal.
`c1coc(-c2nccc3c2[nH]c2ccccc23)c1` registered an Activity of 0.
`c1c[nH]c(-c2nccc3c2[nH]c2ccccc23)c1` gave an Activity of 0.
Molecule `c1csc(-c2nccc3c2[nH]c2ccccc23)c1` yielded an Activity of 0.
With `CCN(CC)C(=O)N1CCN(C)CC1.O=C(O)CC(O)(CC(=O)O)C(=O)O` [DIETHYLCARBAMAZINE CITRATE], the Activity came out at 0.

System in another assay: not listed separately
Put plainly: Macrofilaricidal activity (maf) against Litomosoides carinii in cotton rats at a dose of 30 mg/kg for 5 days by ip administration; Inactive. Type of assay: functional. Particulars: route intraperitoneal.
Molecule `c1csc(C2NCCc3c2[nH]c2ccccc32)c1` (stereo unspecified) gave an Activity of 0.
On the same count and under the same terms, the same measure for `c1coc(C2NCCc3c2[nH]c2ccccc32)c1` (stereo unspecified): 0.
Same read-out and setting: with `c1ccc2c3c([nH]c2c1)C(c1ccsc1)NCC3` (stereo unspecified) the figure was 0.
`c1csc(-c2nccc3c2[nH]c2ccccc23)c1` came in with an Activity of 0.
Molecule `CCN(CC)C(=O)N1CCN(C)CC1.O=C(O)CC(O)(CC(=O)O)C(=O)O` [DIETHYLCARBAMAZINE CITRATE] gave an Activity of 0.

A further assay has as its system Rattus norvegicus. Briefly: Antifilarial (Microfilariae) activity (mf) against Acanthocheilonema viteae in Mastomys natalensis at a dose of 350 mg/kg for 5 days by ip administration. Type of assay: functional. Particulars: route intraperitoneal.
The molecule `CCN(CC)C(=O)N1CCN(C)CC1.O=C(O)CC(O)(CC(=O)O)C(=O)O` [DIETHYLCARBAMAZINE CITRATE] yielded an Activity greater than 90.

The next assay relates to Rattus norvegicus. Briefly: Antifilarial (Microfilariae) activity (mf) against Litomosoides carinii in cotton rats at a dose of 30 mg/kg for 5 days by ip administration. Particulars: route intraperitoneal. Type of assay: functional.
As to `c1c[nH]c(-c2nccc3c2[nH]c2ccccc23)c1`, the Activity is given as 73.

System in another assay: not listed separately
Put plainly: Antifilarial (Microfilariae) activity (mf) against Litomosoides carinii in cotton rats at a dose of 30 mg/kg for 5 days by ip administration; Inactive. Type of assay: functional. Particulars: route intraperitoneal.
`c1coc(-c2nccc3c2[nH]c2ccccc23)c1` gave an Activity of 0.
On to `c1csc(C2NCCc3c2[nH]c2ccccc32)c1` (stereo unspecified), for which the Activity is listed as 0.
On to `c1coc(C2NCCc3c2[nH]c2ccccc32)c1` (stereo unspecified), for which the Activity was 0.
As to `c1ccc2c3c([nH]c2c1)C(c1ccsc1)NCC3` (stereo unspecified), the Activity amounted to 0.
The molecule `c1csc(-c2nccc3c2[nH]c2ccccc23)c1` yielded an Activity of 0.
